The structures appear in SMILES notation.

This test addresses T1, APOL1 G1 Protein (Homo sapiens, UniProt O14791, I384M/S342G).
T1 sequence (O14791 28-398 S342G/I384M): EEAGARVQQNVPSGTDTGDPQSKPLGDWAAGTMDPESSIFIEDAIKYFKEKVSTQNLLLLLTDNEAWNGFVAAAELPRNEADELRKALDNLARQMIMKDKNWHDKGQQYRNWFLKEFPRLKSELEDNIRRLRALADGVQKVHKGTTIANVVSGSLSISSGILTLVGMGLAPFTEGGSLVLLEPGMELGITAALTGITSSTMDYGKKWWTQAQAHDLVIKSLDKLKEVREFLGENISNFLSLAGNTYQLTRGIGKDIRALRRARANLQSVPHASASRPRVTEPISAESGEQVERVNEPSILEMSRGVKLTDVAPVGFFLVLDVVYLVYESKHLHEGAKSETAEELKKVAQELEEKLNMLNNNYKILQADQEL
In words: Trypanosoma brucei brucei lysis assay using APOL1 recombinant protein (AlamarBlue viability readout). The conditions noted are these: Trypanosoma brucei brucei (Lister 427 VSG 221 bloodstream form) lysis by 0.05 μg/mL recombinant APOL1 G1, 16 hrs. In kind it is cell-based. The text has this:
Trypanosoma brucei brucei is a blood stream parasite to which human, gorillas and baboon are immune due to the presence of the APOL1 protein in their HDL particles. The protein is uptaken by the parasite via the TbHpHb receptor located in its flagellar pocket and is bonded by the Hpr protein contained in the HDL particles which triggers the receptor endocytosis by the parasite.
Following endocytosis, the formed vesicle containing the HDL particle matures from early to late endosome, and subsequently to lysosome. The concomitant pH change in the lumen of the vesicle triggers the insertion of the APOL1 protein into the membrane of the late endosome/lysosome and hereby triggers lysosomal membrane premeabilisation and as a further downstream event, trypanosome lysis. Trypanosoma brucei brucei is sensitive to lysis by all three APOL1 variants (G0, G1, and G2).
The Trypanosoma brucei brucei lysis assay is a lysis assay of the parasite using recombinant APOL1 protein variant followed by a fluorescent detection method of viability by the addition of AlamarBlue reagent to the assay well, a general metabolic redox indicator (AlamarBlue assay).
Briefly, the AlamarBlue active compound, the resazurin, a blue, water soluble, non-toxic and cell permeable molecule, which can be followed by absorbance, is reduced by various metabolic pathways into resorufin, a red compound which can be followed by either absorbance or fluorescence. The assay allows the calculation of the percent viability (percent of living Trypanosomes remaining in each well) at the end of a lysis relative to the untreated condition by interpolation of fluorescent values (FLU) on a standard curve with a known amount of seeded trypanosome/well.
Trypanosoma brucei brucei (ATCC, Cat. No. PRA-382) • Lister 427 VSG 221 bloodstream form.
Thaw/Expansion Media (ATCC Medium 2834 Modified HMI-9 Medium)
Equipment • E1-Clip Tip pipette 12 channel adjustable 2-125 μL, Cat. No. 4672070BT • ThermoFisher MultiDrop 384, Cat. No. 5840300 • Multidrop • Agilent Bravo, Cat. No. G5409A • Bravo • SpectraMax M5
Trypanosoma brucei brucei Culture
Step 2, Day 4 • Centrifuge at 800×g for 5 minutes at room temperature. • Resuspend in 1 mL media. • Make a 1:25 fold dilution (10 μL/240 μL media). • Count on a hemocytometer (after adding parasites). • Let sit for 1-2 minutes for the parasites to settle. • Count should be approximately 100 viable motile parasites/16 grid or approximately 25×10^6 parasites/flask. • Passage the parasites by adding 1×10^6 parasites/T75 flask in 20 mL media. • Passage the parasites by adding 2.33×10^6 parasites/T175 flask in 46.6 mL media. • For every T75 flask should make enough for approximately 1.5×384 well assay plates. • For every T175 flask should make enough for approximately 3.8×384 well assay plates.
Step 3. Day 6 • Centrifuge at 800×g for 5 minutes. • Resuspend in 3 mL assay media (No phenol red, no FBS) per 75 starting flask. • Resuspend in 7 mL assay media (No phenol red, no FBS) per 175 flask • Make a 1:25 fold dilution. • Count by hemocytometer. • Every T75 flask set up should have approximately 75×10^6 parasites/flask (verify doubling time=8.7 hrs 1 hr). • Every T175 flask set up should have approximately 175×10^6 parasites/flask (verify doubling time=8.7 hrs±1 hr). • Require 46×10^6 parasites per 384 well plate (at 120,000 parasites per well).
Step 2, Day 2 • Centrifuge at 800×g for 5 minutes at room temperature. • Resuspend in 1 mL media. • Make a 1:25 fold dilution (10 L/240 μL media). • Let sit for 1-2 minutes for the parasites to settle. • Count should be approximately 100 viable motile parasites/16 grid or approximately 8×10^6 parasites per flask. • Passage the parasites by adding 1.25×10^6 parasites per T75 flask in 20 mL media. • For every T75 flask set up should have approximately 1.5×384 well assay plates. • For every T175 flask setup should have approximately 3.8×384 well assay plates. […]
By IC50 is commonly meant the concentration that gives 50% inhibition. With `O=C(CCc1c(-c2ccc(F)cc2)[nH]c2ccc(F)cc12)N[C@@H]1CCNC1=O` [Compound 49], the 50% inhibitory concentration (IC50) lay in the range of 250 to 1000 nM.

As to `O=C(CCc1c(-c2ccccc2)[nH]c2c(F)cccc12)N[C@@H]1C(=O)NC[C@H]1O` [Compound 61], the half-inhibitory concentration (IC50) is less than 250 nM.

Turning to `O=C(CCc1c(-c2cc(F)cc(F)c2)[nH]c2c(F)cc(F)cc12)N[C@@H]1C(=O)NC[C@H]1O` [Compound 104], the concentration for half-maximal inhibition (IC50) is less than 250 nM.

Regarding `O=C(CCc1c(-c2ccc(F)cc2)[nH]c2ccc(O)cc12)N[C@H]1CCNC1=O` [Compound 55, 3-[2-(4-fluorophenyl)-5-hydroxy-1H-indol-3-yl]-N-[(3S)-2-oxopyrrolidin-3-yl]propanamide], the 50% inhibitory concentration (IC50) was more than 1000 nM.

On to `O=C(CCc1c(-c2ccccc2)[nH]c2cc(F)ccc12)N[C@@H]1C(=O)NC[C@H]1O` [Compound 109, 3-(6-fluoro-2-phenyl-1H-indol-3-yl)-N-[(3S,4R)-4-hydroxy-2-oxo-pyrrolidin-3-yl]propanamide], for which the IC50 is less than 250 nM.

In the case of `O=C(CCc1c(-c2ccccc2)[nH]c2c(Br)cccc12)N[C@@H]1C(=O)NC[C@H]1O` [Compound 70], the IC50 was less than 250 nM.

As to `Cc1ccc(-c2[nH]c3ccccc3c2CCC(=O)N[C@@H]2C(=O)NC[C@H]2O)cc1` [Compound 124], the half-maximal inhibitory concentration (IC50) is less than 250 nM.

For `O=C(CCc1c(-c2ccc(F)cc2)[nH]c2c(Cl)cc(F)cc12)N[C@@H]1C(=O)NC[C@H]1O` [Compound 36], the IC50 was less than 250 nM.

Turning to `O=C1C[C@H](NC(=O)CCc2c(-c3ccc(F)cc3)[nH]c3c(F)cc(F)cc23)C(=O)N1` [Compound 5], the concentration for half-maximal inhibition (IC50) was in the range of 250 to 1000 nM.

As to `O=C(CCc1c(-c2ccc(OC(F)F)cc2)[nH]c2c(F)cc(F)cc12)N[C@@H]1C(=O)NC[C@H]1O` [Compound 102], the IC50 is less than 250 nM.

As for `COc1ccc(-c2[nH]c3ccccc3c2CCC(=O)N[C@@H]2C(=O)NC[C@H]2O)cc1` [Compound 121], the IC50 was less than 250 nM.

As for `O=C(CCc1c(-c2ccccc2)[nH]c2ccc(Cl)cc12)N[C@@H]1C(=O)NC[C@H]1O` [Compound 44, 3-(5-chloro-2-phenyl-1H-indol-3-yl)-N-[(3S,4R)-4-hydroxy-2-oxo-pyrrolidin-3-yl]propanamide], the IC50 is less than 250 nM.

For `O=C(CCc1c(-c2cccc(F)c2)[nH]c2c(F)cc(F)cc12)N[C@@H]1C(=O)NC[C@H]1O` [Compound 103], the IC50 was less than 250 nM.

`N#Cc1cc(F)c2[nH]c(-c3ccc(F)cc3)c(CCC(=O)N[C@H]3CCNC3=O)c2c1` [Compound 28]: the IC50 is more than 1000 nM.

In the case of `Cc1ccc(-c2[nH]c3ccccc3c2CCC(=O)N[C@@H]2C(=O)NC[C@H]2O)cc1F` [Compound 126], the 50% inhibitory concentration (IC50) was less than 250 nM.

Take `O=C(CCc1c(-c2ccc(F)cc2)[nH]c2c(F)cc(F)cc12)N[C@H]1C[C@@H](CO)NC1=O` [Compound 7]: the 50% inhibitory concentration (IC50) is more than 1000 nM.

Regarding `O=C(CCc1c(-c2ccc(F)cc2)[nH]c2c(F)cccc12)N[C@H]1CCNC1=O` [Compound 75], the half-maximal inhibitory concentration (IC50) was less than 250 nM.

Consider `O=C(CCc1c(-c2ccc(OC(F)F)cc2)[nH]c2c(F)cc(F)cc12)N[C@H]1CCNC1=O` [Compound 21], for which the half-maximal inhibitory concentration (IC50) was less than 250 nM.

`N#Cc1cc(F)cc2c(CCC(=O)N[C@@H]3C(=O)NC[C@H]3O)c(-c3ccc(F)cc3)[nH]c12` [Compound 42]: the IC50 was less than 250 nM.

In the case of `Cc1ccc2[nH]c(-c3ccc(Br)cc3)c(CCC(=O)N[C@H]3CCNC3=O)c2c1` [Compound 43, 3-[2-(4-bromophenyl)-5-methyl-1H-indol-3-yl]-N-[(3S)-2-oxopyrrolidin-3-yl]propanamide], the IC50 is less than 250 nM.

Consider `Cc1c(F)c(F)cc2c(CCC(=O)N[C@@H]3C(=O)NC[C@H]3O)c(-c3ccccc3)[nH]c12` [Compound 99, 3-(5,6-difluoro-7-methyl-2-phenyl-1H-indol-3-yl)-N-[(3S,4R)-4-hydroxy-2-oxo-pyrrolidin-3-yl]propanamide], for which the IC50 is less than 250 nM.

Regarding `Cc1ccc(-c2[nH]c3ccccc3c2CCC(=O)N[C@@H]2C(=O)NC[C@H]2O)c(F)c1` [Compound 122], the IC50 is less than 250 nM.

Take `O=C(CCc1c(-c2ccc(C(F)F)cc2)[nH]c2ccccc12)N[C@@H]1C(=O)NC[C@H]1O` [Compound 131, 3-[2-[4-(difluoromethyl)phenyl]-1H-indol-3-yl]-N-[(3S,4R)-4-hydroxy-2-oxo-pyrrolidin-3-yl]propanamide]: the IC50 was less than 250 nM.

Turning to `O=C(CCc1c(-c2ccccc2)[nH]c2ccc(F)cc12)N[C@@H]1C(=O)NC[C@H]1O` [Compound 51], the IC50 is less than 250 nM.

As for `O=C(CCc1c(-c2ccc(F)cc2)[nH]c2c(F)cc(F)cc12)N[C@H]1C[C@H](CO)NC1=O` [Compound 8], the IC50 was more than 1000 nM.

Consider `N#Cc1ccc(-c2[nH]c3c(F)cc(F)cc3c2CCC(=O)N[C@H]2CCNC2=O)cc1` [Compound 20, 3-[2-(4-cyanophenyl)-5,7-difluoro-1H-indol-3-yl]-N-[(3S)-2-oxopyrrolidin-3-yl]propanamide], for which the IC50 is less than 250 nM.

In the case of `O=C(CCc1c(-c2ccc(F)cc2)[nH]c2c(F)cc(Br)cc12)N[C@H]1CCNC1=O` [Compound 27], the half-maximal inhibitory concentration (IC50) is less than 250 nM.

Regarding `CC1(NC(=O)CCc2c(-c3ccc(F)cc3)[nH]c3c(F)cc(F)cc23)CCNC1=O` (racemic) [Compound 14], the 50% inhibitory concentration (IC50) was less than 250 nM.

With `O=C(CCc1c(-c2ccccc2)[nH]c2cccc(F)c12)N[C@@H]1C(=O)NC[C@H]1O` [Compound 114, 3-(4-fluoro-2-phenyl-1H-indol-3-yl)-N-[(3S,4R)-4-hydroxy-2-oxo-pyrrolidin-3-yl]propanamide], the IC50 lay in the range of 250 to 1000 nM.

As for `O=C(CCc1c(-c2ccc(F)c(F)c2)[nH]c2c(F)cc(F)cc12)N[C@@H]1C(=O)NC[C@H]1O` [Compound 105], the concentration for half-maximal inhibition (IC50) is less than 250 nM.

With `O=C(CCc1c(-c2ccc(F)cc2)[nH]c2c(F)cc(F)cc12)N[C@@H]1CCNC1=O` [Compound 13], the IC50 was less than 250 nM.

With `O=C(CCc1c(-c2ccccc2)[nH]c2ccc(F)cc12)N[C@H]1CCNC1=O` [Compound 52], the 50% inhibitory concentration (IC50) was less than 250 nM.

In the case of `O=C(CCc1c(-c2ccc(F)cc2)[nH]c2ccccc12)N[C@@H]1C(=O)NC[C@H]1O` [Compound 87, 3-[2-(4-fluorophenyl)-1H-indol-3-yl]-N-[(3S,4R)-4-hydroxy-2-oxo-pyrrolidin-3-yl]propanamide], the IC50 is less than 250 nM.

As for `N#Cc1ccc(-c2[nH]c3ccccc3c2CCC(=O)N[C@@H]2C(=O)NC[C@H]2O)cc1` [Compound 116, 3-[2-(4-cyanophenyl)-1H-indol-3-yl]-N-[(3S,4R)-4-hydroxy-2-oxo-pyrrolidin-3-yl]propanamide], the half-inhibitory concentration (IC50) was less than 250 nM.

With `O=C(CCc1c(-c2ccc(F)cc2)[nH]c2c(F)cc(Cl)cc12)N[C@@H]1C(=O)NC[C@H]1O` [Compound 30], the IC50 is less than 250 nM.

With `O=C(CCc1c(-c2ccc(F)cc2)[nH]c2c(F)cc(F)cc12)N[C@H]1CCNC1=O` [Compound 3, 3-[5,7-difluoro-2-(4-fluorophenyl)-1H-indol-3-yl]-N-[(3S)-2-oxopyrrolidin-3-yl]propanamide], the IC50 was less than 250 nM.

These data come from patent publication US11618746B2, “Inhibitors of APOL1 and methods of using same” (Vertex Pharmaceuticals Incorporated, priority 2018, dated 2023).
